Laboratory results from ChEMBL document CHEMBL5154889, “Development of Novel IP6K Inhibitors for the Treatment of Obesity and Obesity-Induced Metabolic Dysfunctions” (J Med Chem, 2022).
Blank lines part the entries; values can stand above or below the molecule they belong to. Active and inactive are the calls of the source. No cut-off for these calls is given here.

Key:
[1] = target: T1, Inositol hexakisphosphate kinase 3 (Homo sapiens, UniProt Q96PC2); assay: Inhibition of N-terminal 6His-sumo-tagged recombinant human IP6K3 expressed in Escherichia coli assessed as inorganic phosphate release using InsP6 as substrate in presence of ATP measured after 60 to 120 mins by malachite green based colorimetric - DIPP1 coupled enzyme assay
T1 sequence (Q96PC2 whole entry): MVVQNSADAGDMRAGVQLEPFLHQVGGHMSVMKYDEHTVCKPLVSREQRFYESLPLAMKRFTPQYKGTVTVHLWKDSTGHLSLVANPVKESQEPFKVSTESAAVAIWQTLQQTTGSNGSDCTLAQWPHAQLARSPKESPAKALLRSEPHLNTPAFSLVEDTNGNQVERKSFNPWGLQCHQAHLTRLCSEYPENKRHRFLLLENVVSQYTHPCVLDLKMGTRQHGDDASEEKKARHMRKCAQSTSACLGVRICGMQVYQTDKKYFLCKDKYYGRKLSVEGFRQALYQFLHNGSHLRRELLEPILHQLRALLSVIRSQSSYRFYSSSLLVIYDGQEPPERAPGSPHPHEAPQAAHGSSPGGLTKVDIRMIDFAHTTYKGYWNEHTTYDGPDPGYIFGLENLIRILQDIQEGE

Homo sapiens = organism: Homo sapiens; assay: Selectivity ratio of IC50 for N-terminal 6His-sumo-tagged recombinant human IP6K3 expressed in Escherichia coli assessed as inorganic phosphate release using InsP6 as substrate in presence of ATP measured to IC50 for N-terminal 6His-MBP-tagged recombinant human IP6K1 expressed in Escherichia coli assessed as inorganic phosphate release using InsP6 as substrate in presence of ATP
[2] = target: T2, Inositol hexakisphosphate kinase 2 (Homo sapiens, UniProt Q9UHH9); assay: Inhibition of N-terminal 6His-tagged/TEV cleavage site fused recombinant human IP6K2 expressed in Escherichia coli assessed as inorganic phosphate release using InsP6 as substrate in presence of ATP measured after 60 to 120 mins by malachite green based colorimetric - DIPP1 coupled enzyme assay
T2 sequence (Q9UHH9 whole entry): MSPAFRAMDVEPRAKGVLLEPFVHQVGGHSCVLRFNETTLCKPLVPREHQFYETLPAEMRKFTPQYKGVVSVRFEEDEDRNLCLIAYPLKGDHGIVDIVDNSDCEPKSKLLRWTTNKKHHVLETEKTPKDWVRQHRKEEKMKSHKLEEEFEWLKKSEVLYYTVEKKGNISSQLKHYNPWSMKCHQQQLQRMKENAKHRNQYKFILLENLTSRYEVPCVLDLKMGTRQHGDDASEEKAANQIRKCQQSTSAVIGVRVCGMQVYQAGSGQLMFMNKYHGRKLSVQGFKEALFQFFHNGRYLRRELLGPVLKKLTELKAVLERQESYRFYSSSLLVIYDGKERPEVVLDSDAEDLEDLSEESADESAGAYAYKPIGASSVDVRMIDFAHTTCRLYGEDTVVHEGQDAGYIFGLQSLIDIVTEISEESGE

[3] = target: T3, Inositol hexakisphosphate kinase 1 (Homo sapiens, UniProt Q92551); assay: Inhibition of N-terminal 6His-MBP-tagged recombinant human IP6K1 expressed in Escherichia coli assessed as inorganic phosphate release using InsP6 as substrate in presence of ATP measured after 60 to 120 mins by malachite green based colorimetric - DIPP1 coupled enzyme assay
Target sequence in this assay (Q92551 whole entry): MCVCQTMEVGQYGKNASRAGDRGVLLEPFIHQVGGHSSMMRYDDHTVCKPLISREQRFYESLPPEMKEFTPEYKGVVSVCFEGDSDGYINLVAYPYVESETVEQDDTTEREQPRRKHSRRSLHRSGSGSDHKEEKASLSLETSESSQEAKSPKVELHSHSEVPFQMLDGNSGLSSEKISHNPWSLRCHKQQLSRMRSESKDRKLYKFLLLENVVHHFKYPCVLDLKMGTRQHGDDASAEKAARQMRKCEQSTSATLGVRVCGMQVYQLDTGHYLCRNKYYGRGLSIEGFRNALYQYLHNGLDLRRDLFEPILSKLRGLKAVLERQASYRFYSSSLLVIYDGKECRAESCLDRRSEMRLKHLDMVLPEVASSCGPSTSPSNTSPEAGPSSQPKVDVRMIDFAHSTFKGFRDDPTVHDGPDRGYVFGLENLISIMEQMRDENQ

[4] = target: T3, Inositol hexakisphosphate kinase 1; assay: Inhibition of recombinant full length human IP6K1 in HCT-116 cells assessed as reduction in InsP7 level at 10 to 30 uM measured after 30 mins by toluidine blue staining based analysis; type: cell-based; details: dose 10-30 µM
Target sequence in this assay (Q92551 whole entry, looked up): as the sequence (Q92551 whole entry) above

[5] = target: T2, Inositol hexakisphosphate kinase 2; assay: Inhibition of recombinant full length human IP6K2 assessed as inorganic phosphate release measured after 30 mins by ADP-Glo Max assay
[6] = target: T3, Inositol hexakisphosphate kinase 1; assay: Inhibition of recombinant full length human IP6K1 assessed as inorganic phosphate release measured after 30 mins by ADP-Glo Max assay
Target sequence in this assay (Q92551 whole entry): as above

[7] = target: T1, Inositol hexakisphosphate kinase 3; assay: Inhibition of recombinant full length human IP6K3 assessed as inorganic phosphate release measured after 2 hrs by ADP-Glo Max assay
Mus musculus [8] = assay: Anti-diabetic activity in 16 hrs fasted C57BL6J mouse model of high fat diet-induced obesity assessed as reduction in pyruvate-induced gluconeogenesis at 2 mg/kg, ip administered for 4 weeks by pyruvate tolerance test; type: functional, organism-based
[9] = target: Inositol-trisphosphate 3-kinase A (Homo sapiens) (UniProt P23677); assay: Inhibition of N-terminal 6His-tagged/TEV cleavage site fused recombinant human IP3KA (173 to 461 residues) expressed in Escherichia coli using [3H]-Ins91,4,5)P3 as substrate measured after 60 mins by HPLC analysis
CYP2C9 = CYP2C9 (Homo sapiens, UniProt P11712); assay: Inhibition of CYP2C9 in human liver microsomes at 10 uM in presence of NADPH by LC-MS/MS analysis; type: ADME, Microsome
[10] = AUClast in diet-induced obesity CD1 mouse model at 5 mg/kg, iv measured up to 24 hrs post-dosing by LC-MS/MS analysis; type: ADME, organism-based; design: dose 5 mg/kg, time < 24 hrs, route iv; details: in vivo
[11] = AUClast in diet-induced obesity CD1 mouse at 5 mg/kg, ip measured up to 24 hrs post-dosing by LC-MS/MS analysis; type: ADME, organism-based; design: dose 5 mg/kg, time < 24 hrs, route ip; details: in vivo
[12] = Clearance in diet-induced obesity CD1 mouse at 5 mg/kg, iv measured up to 24 hrs post-dosing by LC-MS/MS analysis; type: ADME, organism-based; details: in vivo
Mus musculus [13] = assay: Anti-obesity activity in high fat diet-induced obesity C57BL6J mouse model assessed as reduction in body weight at 5 mg/kg, ip administered for 4 weeks; type: functional, organism-based
Mus musculus [14] = assay: Anti-obesity activity in high fat diet-induced obesity C57BL6J mouse model assessed as reduction in fat mass at 5 mg/kg, ip administered for 4 weeks; type: functional, organism-based
Mus musculus [15] = assay: Anti-obesity activity in high fat diet-induced obesity C57BL6J mouse model assessed as reduction in lean mass at 5 mg/kg, ip administered for 4 weeks; type: functional, organism-based
Mus musculus [16] = assay: Anti-obesity activity in high fat diet-induced obesity C57BL6J mouse model assessed as reduction in epididymal-adipose tissue weight at 5 mg/kg, ip administered for 4 weeks; type: functional, organism-based
Mus musculus [17] = assay: Anti-obesity activity in high fat diet-induced obesity C57BL6J mouse model assessed as reduction in inguinal-adipose tissue weight at 5 mg/kg, ip administered for 4 weeks; type: functional, organism-based
Mus musculus [18] = assay: Anti-diabetic activity in 5 hrs fasted C57BL6J mouse model of high fat diet-induced obesity assessed as improved blood glucose disposal at […], ip administered for 1 weeks by insulin tolerance test; type: functional, organism-based
Mus musculus [19] = assay: Anti-diabetic activity in 16 hrs fasted C57BL6J mouse model of high fat diet-induced obesity assessed as improved blood glucose disposal at 2 mg/kg, ip administered for 3 weeks by insulin tolerance test; type: functional, organism-based
Mus musculus [20] = assay: Reduction in liver weight in C57BL6J mouse model of high fat diet-induced obesity at 2 mg/kg, ip administered for 4 weeks by H and E staining assay; type: functional, organism-based
Mus musculus [21] = assay: Reduction in hepatic steatosis in C57BL6J mouse model of high fat diet-induced obesity at 2 mg/kg, ip administered for 4 weeks by H and E staining assay; type: functional, organism-based
[22] = target: Death-associated protein kinase 1 (Homo sapiens) (UniProt P53355); assay: Inhibition of DAPK1 (unknown origin) at 1 uM relative to control
Sequence of Death-associated protein kinase 1 (Homo sapiens) (P53355 whole entry, looked up): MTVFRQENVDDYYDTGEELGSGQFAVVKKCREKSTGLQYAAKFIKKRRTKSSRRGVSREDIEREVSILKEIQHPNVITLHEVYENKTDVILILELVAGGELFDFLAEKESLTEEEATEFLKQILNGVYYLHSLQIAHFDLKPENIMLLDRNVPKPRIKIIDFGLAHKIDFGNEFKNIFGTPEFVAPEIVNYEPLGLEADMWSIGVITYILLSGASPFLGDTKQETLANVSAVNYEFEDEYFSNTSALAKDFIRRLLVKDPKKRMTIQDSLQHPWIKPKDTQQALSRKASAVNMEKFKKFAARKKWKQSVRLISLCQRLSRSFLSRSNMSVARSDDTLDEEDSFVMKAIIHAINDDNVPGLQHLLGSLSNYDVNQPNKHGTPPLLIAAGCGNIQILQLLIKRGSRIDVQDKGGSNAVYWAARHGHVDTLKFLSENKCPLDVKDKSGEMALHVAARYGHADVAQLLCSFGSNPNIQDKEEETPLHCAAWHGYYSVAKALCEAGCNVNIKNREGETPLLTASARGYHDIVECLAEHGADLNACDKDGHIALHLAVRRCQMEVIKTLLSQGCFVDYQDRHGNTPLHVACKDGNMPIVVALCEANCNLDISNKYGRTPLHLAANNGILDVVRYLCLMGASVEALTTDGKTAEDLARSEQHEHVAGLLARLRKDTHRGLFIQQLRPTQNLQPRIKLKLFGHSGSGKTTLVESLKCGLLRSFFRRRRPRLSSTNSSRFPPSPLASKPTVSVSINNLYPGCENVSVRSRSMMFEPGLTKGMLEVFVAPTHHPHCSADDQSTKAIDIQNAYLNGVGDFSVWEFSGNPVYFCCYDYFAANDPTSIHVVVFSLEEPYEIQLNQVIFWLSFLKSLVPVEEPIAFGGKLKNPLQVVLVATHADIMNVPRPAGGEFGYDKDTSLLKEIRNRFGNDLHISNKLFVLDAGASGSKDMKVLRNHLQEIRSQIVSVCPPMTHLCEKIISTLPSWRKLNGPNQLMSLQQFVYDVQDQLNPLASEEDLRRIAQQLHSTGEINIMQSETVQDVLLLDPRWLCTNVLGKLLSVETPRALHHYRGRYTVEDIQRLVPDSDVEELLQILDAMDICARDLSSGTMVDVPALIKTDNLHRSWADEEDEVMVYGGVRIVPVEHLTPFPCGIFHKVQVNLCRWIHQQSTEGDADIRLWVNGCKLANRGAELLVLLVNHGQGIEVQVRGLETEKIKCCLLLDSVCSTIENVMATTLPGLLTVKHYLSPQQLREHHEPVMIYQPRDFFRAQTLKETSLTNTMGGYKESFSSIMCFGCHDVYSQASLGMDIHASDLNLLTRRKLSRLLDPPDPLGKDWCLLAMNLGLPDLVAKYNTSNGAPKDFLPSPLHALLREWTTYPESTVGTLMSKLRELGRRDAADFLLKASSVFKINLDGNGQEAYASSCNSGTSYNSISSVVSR

Sequence of Inositol-trisphosphate 3-kinase A (Homo sapiens) (P23677 whole entry, the tested form may be a part): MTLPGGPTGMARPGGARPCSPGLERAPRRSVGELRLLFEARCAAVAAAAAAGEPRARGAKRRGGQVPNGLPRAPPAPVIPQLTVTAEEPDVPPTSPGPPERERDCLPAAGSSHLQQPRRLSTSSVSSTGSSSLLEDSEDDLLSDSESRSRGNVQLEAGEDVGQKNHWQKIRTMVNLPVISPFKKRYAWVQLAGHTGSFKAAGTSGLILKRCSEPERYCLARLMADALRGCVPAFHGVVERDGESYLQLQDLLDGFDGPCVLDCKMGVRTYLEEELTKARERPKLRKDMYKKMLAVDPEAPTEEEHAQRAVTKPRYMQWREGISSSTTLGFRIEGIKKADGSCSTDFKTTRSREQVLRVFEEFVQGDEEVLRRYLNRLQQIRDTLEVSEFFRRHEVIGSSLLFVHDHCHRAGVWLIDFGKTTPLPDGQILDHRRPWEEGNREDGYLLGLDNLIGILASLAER
Sequence of CYP2C9 (P11712 whole entry): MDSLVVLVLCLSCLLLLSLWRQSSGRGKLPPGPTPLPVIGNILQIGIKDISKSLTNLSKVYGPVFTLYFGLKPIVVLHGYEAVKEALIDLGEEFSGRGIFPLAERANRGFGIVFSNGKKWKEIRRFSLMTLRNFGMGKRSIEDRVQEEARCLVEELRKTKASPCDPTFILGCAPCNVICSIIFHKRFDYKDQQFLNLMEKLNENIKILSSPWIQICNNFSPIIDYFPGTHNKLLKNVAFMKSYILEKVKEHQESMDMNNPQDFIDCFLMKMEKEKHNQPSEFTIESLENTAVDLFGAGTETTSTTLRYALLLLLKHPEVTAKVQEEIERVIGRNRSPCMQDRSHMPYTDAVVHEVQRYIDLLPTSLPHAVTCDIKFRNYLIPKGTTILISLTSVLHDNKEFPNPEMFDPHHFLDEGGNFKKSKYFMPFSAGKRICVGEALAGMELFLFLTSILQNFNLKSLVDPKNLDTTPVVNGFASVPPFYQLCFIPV

SMILES: O=C(O)/C=C/c1ccc2noc(-c3ccc(Oc4ccccc4)cc3)c2c1
IC50 [1]: 760 nM

SMILES: CN(C)C(=O)/C=C/c1ccc2noc(-c3ccccc3)c2c1
IC50 [1]: > 100000 nM
Ratio IC50 (Homo sapiens): > 3.4

SMILES: Cc1cccc(-c2onc3ccc(C(=O)O)cc23)c1
IC50 [1]: 1410 nM

SMILES: O=C(O)c1ccc2noc(-c3cccc(Oc4ccccc4)c3)c2c1
IC50 [1]: 850 nM

SMILES: O=C(O)c1ccc2noc(-c3cccc(C(F)(F)F)c3)c2c1
IC50 [1]: 4620 nM

SMILES: Cc1cccc(-c2onc3ccc(/C=C/C(=O)O)cc23)c1
IC50 [1]: 3590 nM

SMILES: CC(C)C(=O)Nc1ccc(-c2onc3ccc(C(=O)O)cc23)cc1
IC50 [2]: 820 nM
IC50 [1]: 210 nM

SMILES: O=C(O)c1ccc2noc(-c3ccc(N4CCCC4=O)cc3)c2c1
IC50 [1]: 2170 nM

SMILES: O=C(O)c1ccc2noc(-c3cccc(NC(=O)C4CC4)c3)c2c1
IC50 [1]: 2810 nM

SMILES: O=C(O)c1ccc2noc(-c3ccc(Oc4ncc(Cl)cc4Cl)cc3)c2c1
IC50 [3]: 430 nM
IC50 [1]: 2250 nM
Ratio IC50 (Homo sapiens): 5.2

SMILES: O=C(O)c1ccc2noc(-c3ccc(-c4ccccc4)cc3)c2c1
Activity (Mus musculus [8]): Active
inhibition [9]: Active
inhibition at 10 µM (CYP2C9): 36%
AUClast [10]: 6054 ng·h/mL
AUClast [11]: 2527 ng·h/mL
clearance [12]: 13.7 mL/min/kg
Activity (Mus musculus [13]): Active
Activity (Mus musculus [14]): Active
Activity (Mus musculus [15]): Active
Activity (Mus musculus [16]): Active
Activity (Mus musculus [17]): Active
Activity (Mus musculus [18]): Active
Activity (Mus musculus [19]): Active
Activity (Mus musculus [20]): Active
Activity (Mus musculus [21]): Active
inhibition [22]: 31%

SMILES: O=C(O)/C=C/c1ccc2noc(-c3ccc(-c4ccccc4)cc3)c2c1
IC50 [1]: 200 nM

SMILES: O=C(O)/C=C/c1ccc2noc(-c3ccc(OC(F)(F)F)cc3)c2c1
IC50 [1]: 8370 nM

SMILES: Cc1cc(C)cc(-c2onc3ccc(C(=O)O)cc23)c1
IC50 [1]: 2440 nM

SMILES: O=C(O)c1ccc2noc(-c3ccc(NC(=O)c4ccncn4)cc3)c2c1
IC50 [1]: 430 nM

SMILES: CC(C)NC(=O)c1ccc(-c2onc3ccc(C(=O)O)cc23)cc1
IC50 [2]: 350 nM
IC50 [1]: 340 nM

SMILES: O=C(O)/C=C/c1ccc2c(-c3ccccc3)onc2c1
Ratio IC50 (Homo sapiens): 3.6

SMILES: O=C(O)c1ccc2noc(-c3ccccc3)c2c1
IC50 [1]: 2690 nM

SMILES: O=C(O)c1ccc2noc(-c3ccc(NC(=O)C4CCCC4)cc3)c2c1
IC50 [1]: 240 nM

Results, then the molecule that gave them:

IC50 [1]: 1790 nM
SMILES: O=C(O)c1ccc2noc(-c3ccc(N4CCCCC4)cc3)c2c1

IC50 [1]: 10900 nM
SMILES: O=C(O)c1ccc2noc(-c3cccc(Oc4ccccn4)c3)c2c1

IC50 [1]: 200 nM
SMILES: O=C(O)c1ccc2noc(-c3ccc(NC(=O)c4ccccc4)cc3)c2c1

IC50 [1]: 1290 nM
SMILES: O=C(O)c1ccc2noc(-c3ccc(Cc4ccccc4)cc3)c2c1

IC50 [3]: 1000 nM
IC50 [2]: 2000 nM
IC50 [1]: 14500 nM
SMILES: O=[N+]([O-])c1ccc(CNc2nc(NCc3cccc(C(F)(F)F)c3)nc3[nH]cnc23)cc1

inhibition [4]: Active
IC50 [5]: 25 nM
IC50 [6]: 27 nM
IC50 [7]: 8 nM
SMILES: O=C(O)c1ccc2c(c1)C1(CCN(C(=O)c3ccc(Cl)cc3)CC1)C(=O)N2

IC50 [1]: 670 nM
SMILES: O=C(O)c1ccc2noc(-c3ccc(-c4ccncc4)cc3)c2c1

IC50 [1]: 550 nM
SMILES: O=C(O)c1ccc2noc(-c3ccc(Oc4ccccc4)cc3)c2c1

IC50 [1]: 3090 nM
SMILES: O=C(O)c1ccc2noc(-c3cccc(Oc4ncc(Cl)cc4Cl)c3)c2c1

IC50 [2]: 130 nM
IC50 [1]: 840 nM
SMILES: O=C(O)c1ccc2noc(-c3cccc(-c4ccccc4)c3)c2c1
